Measurements reported in paper PMC8880564, “Design, Synthesis, and Biological Evaluation of a Novel VEGFR-2 Inhibitor Based on a 1,2,5-Oxadiazole-2-Oxide Scaffold with MAPK Signaling Pathway Inhibition” (Pharmaceuticals, 2022).

Columns and labels:
Assay in all cases: NCI-60 one-dose SRB screening
Format in all cases: cell-based
[1] = system: 786-0; conditions: Homo sapiens, 786-0, Renal Cancer, 10 µM one dose, 48 h, read-out: growth percentage
Procedure: (§1) The structures of the synthesized compounds 6a–h, 12a–c, 11, 13a–c, and 14a–c were submitted to the National Cancer Institute’s Developmental Therapeutics Program (NCI-DTP), and all of them were selected for preliminary in vitro anticancer activity screening against NCI-59 human cancer cell lines at a concentration of 10 µM, using the sulforhodamine B (SRB) assay to determine the growth percentage and cell viability.
(§2) The in vitro NCI-60 cell line screening assay was conducted at the National Cancer Institute (NCI), Bethesda, USA against 59 cancer cell lines representing 9 types of cancers, as reported earlier. Briefly, the human cancer cell lines were grown in RPMI 1640 medium containing 5% fetal bovine serum and 2 mM L-glutamine and inoculated into 96-well microtiter plates in 100 μL (5000 to 40,000 cells/well). Then, the plates were incubated at 37 °C, 5% CO2, 95% air, and 100% relative humidity for 24 h. After that, two plates of each cell line were fixed in situ with TCA, to represent cell population at time zero (Tz). The tested compounds were dissolved in DMSO at 400-fold and added so that the final concentration became 10 μM. The plates were then incubated for an additional 48 h followed by the addition of cold TCA to terminate the assay in case of adherent cells. Then, the cells were fixed in situ by cold 50% (w/v) TCA (50 μL; final concentration, 10% TCA) and incubated for 1 h at 4 °C. After discarding the supernatant, the plates were washed 5 times with tap water and air dried. Sulforhodamine B (SRB) solution (100 μL) at 0.4% (w/v) in 1% HOAc was added to each well, and plates were incubated for 10 min. at rt. Then, washing with 1% acetic acid was conducted 5 times to remove the unbound dye followed by air drying. After that, 10 mM trizma base was added to solubilize the bound stain, and the absorbance was read on an automated plate reader at a wavelength of 515 nm. On the other hand, the methodology for suspension cells was the same except that 50 μL of 80% TCA (final concentration, 16% TCA) was gently added to terminate the assay by fixing settled cells at the bottom of the wells. Percentage growth inhibition (GI%) was calculated as follows:
(§3) Growth percentage=Ti (test growth in the presence of compound at 10 µM )−Tz (time zero)/C (control growth)−Tz (time zero)×100 for Ti ≥ Tz;
(§4) Growth percentage=Ti (test growth in the presence of compound at 10 µM )−Tz (time zero)/Tz (time zero)×100 for Ti < Tz.
(§5) where values of 100, 40, 0, −40, and −100 mean no GI, 60% GI, no net G, 40% lethality, and all cells are dead, respectively.

[2] = system: A498; conditions: Homo sapiens, A498, Renal Cancer, 10 µM one dose, 48 h, read-out: growth percentage
Procedure: as §1, §2, §3, §4, §5

[3] = system: ACHN; conditions: Homo sapiens, Renal Cancer, 10 µM one dose, 48 h, read-out: growth percentage
Procedure: as §1, §2, §3, §4, §5

[4] = system: COLO 205; conditions: Homo sapiens, COLO 205, Colon Cancer, 10 µM one dose, 48 h, read-out: growth percentage
Procedure: as §1, §2, §3, §4, §5

[5] = system: HCT-116; conditions: Homo sapiens, HCT-116, Colon Cancer, 10 µM one dose, 48 h, read-out: growth percentage
Procedure: as §1, §2, §3, §4, §5

[6] = system: HCT-15; conditions: Homo sapiens, HCT-15, Colon Cancer, 10 µM one dose, 48 h, read-out: growth percentage
Procedure: as §1, §2, §3, §4, §5

[7] = system: HL-60(TB); conditions: Homo sapiens, Leukemia, 10 µM one dose, 48 h, read-out: growth percentage
Procedure: as §1, §2, §3, §4, §5

[8] = system: HOP-62; conditions: Homo sapiens, HOP-62, Non-Small Cell Lung Cancer, 10 µM one dose, 48 h, read-out: growth percentage
Procedure: as §1, §2, §3, §4, §5

[9] = system: HOP-92; conditions: Homo sapiens, HOP-92, Non-Small Cell Lung Cancer, 10 µM one dose, 48 h, read-out: growth percentage
Procedure: as §1, §2, §3, §4, §5

[10] = system: IGROV1; conditions: Homo sapiens, IGROV-1, IGROV1, Ovarian Cancer, 10 µM one dose, 48 h, read-out: growth percentage
Procedure: as §1, §2, §3, §4, §5

[11] = system: K-562; conditions: Homo sapiens, K562, K-562, Leukemia, 10 µM one dose, 48 h, read-out: growth percentage
Procedure: as §1, §2, §3, §4, §5

[12] = system: LOX IMVI; conditions: Homo sapiens, Melanoma, 10 µM one dose, 48 h, read-out: growth percentage
Procedure: as §1, §2, §3, §4, §5

[13] = system: MDA-MB-231/ATCC; conditions: Homo sapiens, Breast Cancer, 10 µM one dose, 48 h, read-out: growth percentage
Procedure: as §1, §2, §3, §4, §5

[14] = system: NCI-H23; conditions: Homo sapiens, NCI-H23, Non-Small Cell Lung Cancer, 10 µM one dose, 48 h, read-out: growth percentage
Procedure: as §1, §2, §3, §4, §5

[15] = system: NCI-H522; conditions: Homo sapiens, NCI-H522, Non-Small Cell Lung Cancer, 10 µM one dose, 48 h, read-out: growth percentage
Procedure: as §1, §2, §3, §4, §5

[16] = system: NCI/ADR-RES; conditions: Homo sapiens, Ovarian Cancer, 10 µM one dose, 48 h, read-out: growth percentage
Procedure: as §1, §2, §3, §4, §5

[17] = system: OVCAR-3; conditions: Homo sapiens, OVCAR-3, Ovarian Cancer, 10 µM one dose, 48 h, read-out: growth percentage
Procedure: as §1, §2, §3, §4, §5

[18] = system: OVCAR-5; conditions: Homo sapiens, OVCAR-5, Ovarian Cancer, 10 µM one dose, 48 h, read-out: growth percentage
Procedure: as §1, §2, §3, §4, §5

[19] = system: SF-295; conditions: Homo sapiens, SF-295, CNS Cancer, 10 µM one dose, 48 h, read-out: growth percentage
Procedure: as §1, §2, §3, §4, §5

[20] = system: SF-539; conditions: Homo sapiens, SF-539, CNS Cancer, 10 µM one dose, 48 h, read-out: growth percentage
Procedure: as §1, §2, §3, §4, §5

[21] = system: SN12C; conditions: Homo sapiens, Renal Cancer, 10 µM one dose, 48 h, read-out: growth percentage
Procedure: as §1, §2, §3, §4, §5

[22] = system: T-47D; conditions: Homo sapiens, T47D, Breast Cancer, 10 µM one dose, 48 h, read-out: growth percentage
Procedure: as §1, §2, §3, §4, §5

Row | SMILES | activity at 10 µM [1] | activity at 10 µM [2] | activity at 10 µM [3] | activity at 10 µM [4] | activity at 10 µM [5] | activity at 10 µM [6] | activity at 10 µM [8] | activity at 10 µM [9] | activity at 10 µM [10] | activity at 10 µM [11] | activity at 10 µM [12] | activity at 10 µM [13] | activity at 10 µM [14] | activity at 10 µM [15] | activity at 10 µM [16] | activity at 10 µM [17] | activity at 10 µM [18] | activity at 10 µM [19] | activity at 10 µM [20] | activity at 10 µM [21] | other results
1 | Cc1nn(-c2ccccc2)c2nc(CCl)[nH]c(=O)c12 [13b] | 122% | 4.55% | 90.2% | 110% | 24.9% | 90.6% | 98.3% | 117% | 96.2% | 19.2% | 101% | 88.4% | 98.8% | 89.8% | 102% | 97.4% | 110% | 109% | 36.9% | 95.7% | activity at 10 µM [7]: 33.1%; activity at 10 µM [22]: 66%
2 | [O-][n+]1onc(-c2ccccc2)c1COc1ccc(Nc2ncnc3c2cnn3-c2ccc(Br)cc2)cc1 [6e, 3-((4-((1-(4-bromophenyl)-1H-pyrazolo[3,4-d]pyrimidin-4-yl)amino)phenoxy)methyl)-4-phenyl-1,2,5-oxadiazole 2-oxide] | 96.1% | 94% | 103% | 105% | 92.7% | 94.9% | 105% | 109% | 106% | 98.5% | 111% | 108% | 101% | 96.1% | 107% | 117% | 98.8% | 101% | 98.4% | 96.4% | activity at 10 µM [7]: 96.1%; activity at 10 µM [22]: 99.9%
3 | Cc1nn(-c2ccccc2)c2nc(CNc3ccc(NCc4c(-c5ccccc5)no[n+]4[O-])cc3)[nH]c(=O)c12 [14b, 3-(((4-(((3-methyl-4-oxo-1-phenyl-4,5-dihydro-1H-pyrazolo[3,4-d]pyrimidin-6-yl)methyl)amino)phenyl)amino)methyl)-4-phenyl-1,2,5-oxadiazole 2-oxide] | 125% | 97.9% | 88.8% | 116% | 79% | 80.6% | 110% | 93.2% | 64.4% | 75.8% | 97.6% | 82.7% | 86.6% | 80.9% | 92.4% | 87.6% | 95.4% | 103% | 99.4% | 89.4% | activity at 10 µM [7]: 93.7%; activity at 10 µM [22]: 75.5%
4 | Cc1nn(-c2ccc(Br)cc2)c2nc(C(F)(F)F)nc(Nc3ccc(NCc4c(-c5ccccc5)no[n+]4[O-])cc3)c12 [12c, 3-(((4-((1-(4-bromophenyl)-3-methyl-6-(trifluoromethyl)-1H-pyrazolo[3,4-d]pyrimidin-4-yl)amino)phenyl)amino)methyl)-4-phenyl-1,2,5-oxadiazole 2-oxide] | 88.1% | 117% | 68.1% | 73.2% | 31.9% | 34.6% | 68.3% | 82.3% | 59.6% | 51.4% | 48.5% | 65.9% | 91.6% | 83.5% | 88.8% | 91.6% | 89.5% | 57.5% | 59.4% | 76.2% | activity at 10 µM [7]: 83.2%; activity at 10 µM [22]: 85.6%
5 | Cc1nn(-c2ccccc2)c2nc(C(F)(F)F)nc(Nc3ccc(NCc4c(-c5ccccc5)no[n+]4[O-])cc3)c12 [12a, 3-(((4-((3-methyl-1-phenyl-6-(trifluoromethyl)-1H-pyrazolo[3,4-d]pyrimidin-4-yl)amino)phenyl)amino)methyl)-4-phenyl-1,2,5-oxadiazole 2-oxide] | 92.4% | 94.4% | 77.7% | 73.6% | 41.1% | 42% | 93.1% | 90.1% | 77.9% | 39.8% | 58% | 84.4% | 96.7% | 91.4% | 83% | 105% | 93.7% | 76.6% | 78.1% | 77.7% | activity at 10 µM [7]: 77.2%; activity at 10 µM [22]: 80.5%
6 | Cc1nn(-c2ccc(Br)cc2)c2nc(CCl)[nH]c(=O)c12 [13c] | 106% | -88.8% | 94.8% | 103% | 98.3% | 103% | 98.5% | 101% | 95.1% | 75.6% | 98.5% | 94.1% | 103% | 85.5% | 102% | 97.4% | 116% | 100% | 77% | 100% | activity at 10 µM [22]: 91.5%
